Results as given in ChEMBL document CHEMBL1126967, “Synthetic pterocarpans with anti-HIV activity” (Bioorg Med Chem Lett, 1993).

Assays:
CCRF-CEM [1] = assay: Compound tested in Vitro for inhibition of cytopathic activity of HIV-1 on T4 lymphocytes (CEM cells); type: functional, cell-based; settings: Homo sapiens
CCRF-CEM [2] = assay: Compound tested in Vitro for inhibition of cytopathic activity of HIV-1 on T4 lymphocytes (CEM cells); Inactive; type: functional, cell-based, Homo sapiens
CCRF-CEM [3] = assay: Compound tested in vitro for inhibition of cytopathic activity of AZT-resistant HIV-1 on T4 lymphocytes (CEM cells); type: functional, cell-based; settings: Homo sapiens
CCRF-CEM [4] = assay: Compound tested in vitro for inhibition of cytopathic activity of AZT-resistant SIV on T4 lymphocytes (CEM cells): IA denotes inactive; type: functional, cell-based, Homo sapiens
CCRF-CEM [5] = assay: Compound tested in vitro for inhibition of cytopathic activity of AZT-sensitive HIV-1 on T4 lymphocytes (CEM cells); type: functional, cell-based; settings: Homo sapiens
CCRF-CEM [6] = assay: Compound tested in vitro for inhibition of cytopathic activity of AZT-sensitive HIV-2 on T4 lymphocytes (CEM cells): IA denotes inactive; type: functional, cell-based, Homo sapiens
CCRF-CEM [7] = assay: Compound tested in vitro for inhibition of cytopathic activity of AZT-sensitive SIV on T4 lymphocytes (CEM cells): IA denotes inactive; type: functional, cell-based, Homo sapiens
CCRF-CEM [8] = assay: Compound tested in vitro for inhibition of cytopathic activity of Merck-resistant variant of AZT-resistant HIV-l (A17) on T4 lymphocytes (CEM cells): IA denotes inactive; type: functional, cell-based, Homo sapiens
CCRF-CEM [9] = assay: Compound tested in vitro for inhibition of cytopathic activity of Merck-resistant variant of AZT-sensitive HIV-l (A17) on T4 lymphocytes (CEM cells): IA denotes inactive; type: functional, cell-based, Homo sapiens
CCRF-CEM [10] = assay: Compound tested in vitro for inhibition of cytopathic activity of HIV-1 on T4 lymphocytes (CEM cells); type: functional, cell-based; settings: Homo sapiens
CCRF-CEM [11] = assay: Compound tested in vitro for inhibition of cytopathic activity of AZT-resistant HIV-2 on T4 lymphocytes (CEM cells): IA denotes inactive; type: functional, cell-based, Homo sapiens

| EC50 (CCRF-CEM [1]) [µM] | IC50 (CCRF-CEM [1]) [µM] | EC50 (CCRF-CEM [2]) | IC50 (CCRF-CEM [2]) | SMILES | also measured |
| --- | --- | --- | --- | --- | --- |
| 5.7 | 69.4 |  |  | COc1ccc2c(c1)OCC1c3cc(OC)c(OCc4ccccc4)cc3OC21 (stereo not given) |  |
|  |  | Not Active | Not Active | COc1cc2c(c(C)c1O)C1COc3ccccc3C1O2 (stereo not given) |  |
|  |  | Not Active | Not Active | COC(=O)c1c(O)ccc2c1C1COc3cc(OC)ccc3C1O2 (stereo not given) |  |
| 1.46 | 22.2 |  |  | COc1ccc2c(c1)OCC1c3cc(O)c(OCC4CCCCC4)cc3OC21 (stereo not given) |  |
|  |  | Not Active | Not Active | COC(=O)c1c(O)ccc2c1C1COc3ccccc3C1O2 (stereo not given) |  |
|  |  | Not Active | Not Active | COc1ccc2c(c1)OCC1c3cc(CC=C(C)C)c(OCc4ccccc4)cc3OC21 (stereo not given) |  |
| 0.43 | 38.5 |  |  | COc1ccc2c(c1)OCC1c3cc(O)c(OCc4cccc5ccccc45)cc3OC21 (stereo not given) |  |
| 31.2 | 200 |  |  | COc1ccc2c(c1)OCC1c3ccc(OCc4ccccc4)cc3OC21 (stereo not given) |  |
|  |  | Not Active | Not Active | COc1ccc2c(c1)OC1c3ccc(OC)cc3OCC21 (stereo not given) |  |
|  |  | Not Active | Not Active | COc1ccc2c(c1)OCC1c3cc(O)c(OC)cc3OC21 (stereo not given) |  |
|  |  | Not Active | Not Active | Oc1cc2c(cc1OCc1ccccc1)OC1c3ccccc3OCC21 (stereo not given) |  |
|  |  | Not Active | Not Active | COc1ccc2c(c1)OCC1c3cc4c(cc3OC21)OCO4 (stereo not given) |  |
|  |  | Not Active | Not Active | COc1cc2c(cc1O)C1COc3ccccc3C1O2 (stereo not given) |  |
|  |  |  |  | COc1ccc2c(c1)OCC1c3cc(O)c(OCc4ccccc4)cc3OC21 (stereo not given) | EC50 (CCRF-CEM [3]): 1.3 µM; EC50 (CCRF-CEM [4]): Not Active; EC50 (CCRF-CEM [5]): 3.6 µM; EC50 (CCRF-CEM [6]): Not Active; EC50 (CCRF-CEM [7]): Not Active; EC50 (CCRF-CEM [8]): Not Active; EC50 (CCRF-CEM [9]): Not Active; EC50 (CCRF-CEM [10]): 1.21 µM; IC50 (CCRF-CEM [10]): 40.5 µM; EC50 (CCRF-CEM [11]): Not Active |
| 3.35 | 34.2 |  |  | COc1ccc2c(c1)OCC1c3cc(O)c(OCc4ccc5ccccc5c4)cc3OC21 (stereo not given) |  |
| 2.28 | 24.5 |  |  | COc1ccc2c(c1)OCC1c3cc(O)c(OCC(C)C)cc3OC21 (stereo not given) |  |
